Experimental data published in patent US5989846A, “Assays to identify inducers of plant defense resistance” (Rutgers, The State University of New Jersey, priority 1995, dated 1999).
Counter-ions that a name gives are not always drawn. Like-named read-outs stand apart in the source and are kept apart here.

Experiments:
TMV = assay type: in vivo, tobacco mosaic virus
Procedure: The SA/SAG valves are given in micrograms per gram fresh weight of leaf tissue and represent averages of values from 3-6 treated plants at 6 days past injection. […] For determination of reduction in lesion size, longitudinal halves of 2 leaves on 3-6 plants were injection with chemicals, and six days later the entire leaf was infected with TMV. Twenty lesions were measured on each half of the leaf seven days post infection; the values given represent the average percent reduction in lesion diameter in the treated leaf half compared to the untreated half.

SABP = system: SABP; design: concentration or dose not given beside the values; conditions: Table 6; previously published data (Chen et al. 1993); cited from earlier work
[1] = system: resistance or PR gene expression; design: key: ++: indicates a high level of biological activity; +: indicates a lower level of biological activity; ±: indicates low, but detectable biological activity in some assays; -: indicates no biological activity; conditions: Table 3; values reported in literature; cited from earlier work
[2] = system: salicylic acid binding protein; assay: Competitive [14C] salicylic acid binding assay (spin-column); design: species or system tobacco; conditions: [14C] salicylic acid 20 μM; for Inhibition (%) 2×: 40 μM (2×) unlabeled competitor; for Inhibition (%) 10×: 200 μM (10×) unlabeled competitor
Procedure: The 180 kDa native binding protein isolated was tested for binding affinity and specificity. A competitive assay was established using salicylic acid binding protein fractionated from plants as previously described.
A key element during the characterization and the purification process is a simple, inexpensive, sensitive and reliable method for determining the salicylic acid binding activity. For this purpose, spin-column exclusion chromatography was used to separate the bound [^14 C] salicylic acid (excluded) from the bulk free salicylic acid (included). Specifically, a 1.5 ml Eppendorf tube was punctured at the tip with a 20-gauge needle and a small amount of glass wool was added to cover the small hole. The tube was then filled with Bio-Gel P-6DG desalting gel (exclusion limit 6 KDa; purchased from Bio-Rad, Melville, N.Y.) which have been swollen in water. An alternative gel is Sephadex G-25 fine (from Pharmacia, Piscataway, N.J.). Excess liquid in the gel was removed and centrifuged for 5 minutes at full speed in a Dynamic centrifuge (Becton Dickinson). The process was then repeated several times until the gel filled the tube. After incubation of an aliquot of the extract or column fractions for 2 hr at 4° C. with 5 μM-20 μM [^14 C salicylic acid] (specifically radioactivity 55 Ci/mol; purchased from New England Nuclear), 150 μl of proteins binding sample was loaded onto the tube column, which was then rapidly centrifuged for 2 minutes at full speed and the solution of proteins and bound [^14 C-salicylic acid] that was excluded from the gel was collected into another tube that had been placed under the tube column during the centrifugation. One hundred microliters of this solution was then used to determine the amount of bound salicylic acid. […] For example, to determine the inhibitory effect of various salicylic acid analogues on salicylic acid binding activity, these individual analogues were included in the binding mixture containing both the protein and [^14 C] salicylic acid during the 2 hr incubation, and resulting binding activity was determined in comparison to the activity in the absence of these analogues. Likewise, to determine the effect of pH and antioxidants on the binding activity the protein sample was either dialyzed against a large volume of buffers with different pH or antioxidants were added to the protein sample to various concentrations and the resulting binding activities were then determined with the spin-column method in comparison with the activity determined in the absence of these treatments.

[3] = molecular target: T1, catalase activity of SABP (Nicotiana tabacum, UniProt P49319); assay: Catalase activity of highly purified SABP (luminol method); assay type: biochemical, tobacco; conditions: for inhibition at 1000 µM: 0.05 h, 1 mM SA or analogue, 1 mM H2O2, 500 ng highly purified SABP; for Inhibition of the catalase activity of SABP (in words): compared with SA
T1 sequence (P49319 1-492): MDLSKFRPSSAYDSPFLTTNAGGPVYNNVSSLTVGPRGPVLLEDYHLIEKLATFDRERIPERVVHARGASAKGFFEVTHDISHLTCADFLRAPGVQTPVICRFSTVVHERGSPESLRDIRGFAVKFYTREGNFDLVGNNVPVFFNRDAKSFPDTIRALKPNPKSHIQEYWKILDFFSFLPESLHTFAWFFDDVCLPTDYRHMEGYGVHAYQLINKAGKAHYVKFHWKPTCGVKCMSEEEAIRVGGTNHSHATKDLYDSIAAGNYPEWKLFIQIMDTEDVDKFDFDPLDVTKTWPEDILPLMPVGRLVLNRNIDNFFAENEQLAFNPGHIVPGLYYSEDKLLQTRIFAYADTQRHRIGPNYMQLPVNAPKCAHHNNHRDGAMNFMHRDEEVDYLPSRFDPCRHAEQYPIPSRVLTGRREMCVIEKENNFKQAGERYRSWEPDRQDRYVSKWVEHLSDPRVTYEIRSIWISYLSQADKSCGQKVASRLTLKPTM
Procedure: Aliquots (50 μl) were removed from the assay mixture at 30 second intervals to assay for amount of H2 O2 remaining using the luminol method as has been described by Warm and Laties, Phytochem. […] The tube was placed in the measuring chamber and assay was initiated with automatic injection into the mixture of 100 μl of 0.5 mM K3 Fe(CN)6 in 0.2N NH4 OH, pH 9.5. Measurements were integrated over 5 second periods. H2 O2 was calculated from the standard curve constructed with known amounts of H2 O2. Rate constants of SABP catalase activity in the presence or absence of SA or its analogues were then calculated based on a first-order mechanism.

[4] = system: salicylic acid binding protein; assay: Binding of 14C-labelled ligands by partially purified SABP; design: species or system tobacco; conditions: for [14C] radioactivity bound, with protein / [14C] radioactivity bound, without protein: 50 μM ligand, n = 3, SD; for [14C] radioactivity bound, with protein: 3 mg/ml partially purified SABP; for [14C] radioactivity bound, without protein: no protein
Procedure: Binding was assayed with 3 mg/ml of the
A key element during the characterization and the purification process is a simple, inexpensive, sensitive and reliable method for determining the salicylic acid binding activity. For this purpose, spin-column exclusion chromatography was used to separate the bound [^14 C] salicylic acid (excluded) from the bulk free salicylic acid (included). Specifically, a 1.5 ml Eppendorf tube was punctured at the tip with a 20-gauge needle and a small amount of glass wool was added to cover the small hole. The tube was then filled with Bio-Gel P-6DG desalting gel (exclusion limit 6 KDa; purchased from Bio-Rad, Melville, N.Y.) which have been swollen in water. An alternative gel is Sephadex G-25 fine (from Pharmacia, Piscataway, N.J.). Excess liquid in the gel was removed and centrifuged for 5 minutes at full speed in a Dynamic centrifuge (Becton Dickinson). The process was then repeated several times until the gel filled the tube. After incubation of an aliquot of the extract or column fractions for 2 hr at 4° C. with 5 μM-20 μM [^14 C salicylic acid] (specifically radioactivity 55 Ci/mol; purchased from New England Nuclear), 150 μl of proteins binding sample was loaded onto the tube column, which was then rapidly centrifuged for 2 minutes at full speed and the solution of proteins and bound [^14 C-salicylic acid] that was excluded from the gel was collected into another tube that had been placed under the tube column during the centrifugation. One hundred microliters of this solution was then used to determine the amount of bound salicylic acid. With this binding assay, characterization of the salicylic acid binding protein can be carried out very rapidly. For example, to determine the inhibitory effect of various salicylic acid analogues on salicylic acid binding activity, these individual analogues were included in the binding mixture containing both the protein and [^14 C] salicylic acid during the 2 hr incubation, and resulting binding activity was determined in comparison to the activity in the absence of these analogues. Likewise, to determine the effect of pH and antioxidants on the binding activity the protein sample was either dialyzed against a large volume of buffers with different pH or antioxidants were added to the protein sample to various concentrations and the resulting binding activities were then determined with the spin-column method in comparison with the activity determined in the absence of these treatments.

ascorbate peroxidase = assay: Ascorbate peroxidase activity in tobacco leaf extracts; assay type: biochemical, Nicotiana tabacum cv. Xanthi nc; conditions: 200 μM compound, corrected for quenching of auto oxidation
Procedure: […] Two grams of leaves from 6-8 week old tobacco plants (Nicotiana tabacum cv. Xanthi nc) grown at 22° C. in a 14 hr light cycle were homogenized under liquid nitrogen using a pestle and mortar.
To obtain ascorbate peroxidase-containing extracts, the soluble proteins were extracted by grinding the powder in 10 ml of 100 mM potassium phosphate, pH 7, containing […] ascorbate and 1% (weight/volume) polyvinylpyrrolidone, with a small amount of quartz sand. The homogenate was centrifuged at 14,000 g for 5 min. […] The pellet resulting from centrifugation (14,000 g, 15 min.) was resuspended in extraction buffer (100 mM potassium phosphate, pH7, containing 0.25 mM ascorbate and 1% (weight/volume) polyvinylpyrrolidone) and desalted on a PD-10 column (Pharmacia) equilibrated with 50 mM potassium phosphate, pH 7, containing 100 μM ascorbate. The extract was used immediately. […] The amount of protein per assay was 30-50 μg. Oxidation of ascorbate was followed by the decrease in the absorbance at 290 nm.
The values illustrated in FIG. 17 are the mean values for three replicated assays.

| Compound | Inhibition (%) [14C]SA binding (SABP) | Biological activity [1] | Inhibition (%) 2× [2] | Inhibition (%) 10× [2] | inhibition at 1000 µM [3] | other results |
| --- | --- | --- | --- | --- | --- | --- |
| Cc1ncc(C[n+]2csc(CCO)c2C)c(N)n1 [thiamine-HCl] |  |  |  |  |  | Reduction in lesion size (%) (TMV; in vivo): 71% |
| [Ba+2].[Cl-].[Cl-] [BaCl2, barium chloride] |  |  |  |  |  | Reduction in lesion size (%) (TMV; in vivo): 60% |
| CC(=O)Oc1ccccc1C(=O)O [Acetylsalicylic acid] | 48% | ++ | 25% | 57% | 53.6% | Inhibition of the catalase activity of SABP (in words) [3]: weaker than SA; Binding by the salicylic acid binding protein ([4]; conclusion from Table 4): not actually bound |
| CCC(N)C(=O)O (stereo not drawn) [α-amino butyric acid] |  |  |  |  |  | Reduction in lesion size (%) (TMV; TMV infection six days after injection, lesions measured seven days post infection, treated vs untreated leaf half): 63% |
| O=C(O)c1c(O)cccc1O [2,6-Dihydroxybenzoic acid] | 92% | ++ | 51% | 91% | 91.3% | Inhibition of the catalase activity of SABP (in words) [3]: somewhat stronger; % Inhibition of ascorbate peroxidase (ascorbate peroxidase): 72 ± 8% |
| O=C(O)c1cccc(O)c1O [2,3-Dihydroxybenzoic acid] | 9% | ± | 1% | 10% | 15.3% | Inhibition of the catalase activity of SABP (in words) [3]: poor inhibitor |
| O=C(O)c1ccc(O)cc1 [4-Hydroxybenzoic acid] | -2% | - | 1% | -2% | 4.1% | % Inhibition of ascorbate peroxidase (ascorbate peroxidase): 0 ± 6% |
| O=C(O)c1cc(O)ccc1O [2,5-Dihydroxybenzoic acid] | 1% | - | 1% | -1% | 3.2% |  |
| [Acetyl-^14 C] acetylsalicylic acid |  |  |  |  |  | [14C] radioactivity bound, with protein [4]: 96 ± 10 dpm/100 μl; [14C] radioactivity bound, without protein [4]: 104 ± 9 dpm/100 μl |
| CC(=O)Oc1ccccc1[14C](=O)O [[carboxyl-^14 C] acetylsalicylic acid] |  |  |  |  |  | [14C] radioactivity bound, with protein [4]: 397 ± 25 dpm/100 μl; [14C] radioactivity bound, without protein [4]: 112 ± 10 dpm/100 μl |
| O=C(O)[14c]1ccccc1O [[^14 C] salicylic acid] |  |  |  |  |  | [14C] radioactivity bound, with protein [4]: 989 ± 78 dpm/100 μl; [14C] radioactivity bound, without protein [4]: 89 ± 7 dpm/100 μl |
| O=C(O)c1ccc(O)cc1O [2,4-Dihydroxybenzoic acid] | -4% | - | -1% | -2% | 5.2% |  |
